In PubChem BioAssay AID248 (DTP/NCI, 2004):
“And” between values parts separate entries of the source, which are not always exact repeats. Identical values can stand only once. Toxic doses and inconclusive results are not listed.

Test system: L1210 leukemia ip in BDF1 mice, survival T/C
Assay: NCI In Vivo Anticancer Drug Screen. Data for tumor model L1210 Leukemia (intraperitoneal) in B6D2F1 (BDF1) mice
Details: endpoint: mean survival time, higher = longer survival
Outline: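 Value reflects the ratio of survival in compound-treated mice to survival in vehicle-treated controls, with both groups carrying the same transplanted tumor.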

[1] = dose: 100.0 mg/kg/injection, schedule: Q01DX001 (ip), vehicle: Klucel (hydroxypropylcellulose) (HPC)
[2] = dose: 200.0 mg/kg/injection, schedule: Q01DX001 (ip), vehicle: Klucel (hydroxypropylcellulose) (HPC)
[3] = dose: 400.0 mg/kg/injection, schedule: Q01DX001 (ip), vehicle: Klucel (hydroxypropylcellulose) (HPC)
[4] = dose: 100.0 mg/kg/injection, schedule: Q01DX001 (ip), vehicle: carboxymethylcellulose (CMC)
[5] = dose: 200.0 mg/kg/injection, schedule: Q01DX001 (ip), vehicle: carboxymethylcellulose (CMC)
[6] = dose: 100.0 mg/kg/injection, schedule: Q01DX009 (ip), vehicle: Klucel (hydroxypropylcellulose) (HPC)
[7] = dose: 100.0 mg/kg/injection, schedule: Q04DX003 (ip), vehicle: Klucel (hydroxypropylcellulose) (HPC)
[8] = dose: 200.0 mg/kg/injection, schedule: Q04DX003 (ip), vehicle: Klucel (hydroxypropylcellulose) (HPC)
[9] = dose: 100.0 mg/kg/injection, schedule: Q04DX003 (ip), vehicle: saline with Tween-80
[10] = dose: 200.0 mg/kg/injection, schedule: Q04DX003 (ip), vehicle: saline with Tween-80
[11] = dose: 400.0 mg/kg/injection, schedule: Q04DX003 (ip), vehicle: saline with Tween-80
[12] = dose: 100.0 mg/kg/injection, schedule: Q01DX001 (ip), vehicle: saline
[13] = dose: 200.0 mg/kg/injection, schedule: Q01DX001 (ip), vehicle: saline
[14] = dose: 400.0 mg/kg/injection, schedule: Q01DX001 (ip), vehicle: saline
[15] = dose: 200.0 mg/kg/injection, schedule: Q01DX009 (ip), vehicle: Klucel (hydroxypropylcellulose) (HPC)
[16] = dose: 400.0 mg/kg/injection, schedule: Q01DX009 (ip), vehicle: Klucel (hydroxypropylcellulose) (HPC)
[17] = dose: 50.0 mg/kg/injection, schedule: Q01DX009 (ip), vehicle: saline

CCOC(=O)NCc1cccc2ccc(Cl)cc12
T/C [1]: 95 % of control | T/C [2]: 90 % of control | T/C [3]: 86 % of control

O=[N+]([O-])c1cnc(/C=C/c2ccccc2)nc1
T/C [4]: 97 % of control | T/C [5]: 95 % of control | T/C (dose: 400.0 mg/kg/injection, schedule: Q01DX001 (ip), vehicle: carboxymethylcellulose (CMC)): 89 % of control

Cn1c(CC(O)(C(F)(F)F)C(F)(F)F)cc2ccccc21
T/C (dose: 100.0 mg/kg/injection, schedule: Q01DX009 (ip), vehicle: other): 95 % of control | T/C (dose: 200.0 mg/kg/injection, schedule: Q01DX009 (ip), vehicle: other): 95 % of control | T/C (dose: 400.0 mg/kg/injection, schedule: Q01DX009 (ip), vehicle: other): 93 % of control

CC[N+](CC)(CC)CCCCCCCC[N+](CC)(CC)CC
T/C (dose: 0.78 mg/kg/injection, schedule: Q01DX009 (ip), vehicle: water): 110 % of control | T/C (dose: 0.78 mg/kg/injection, schedule: Q04DX003 (ip), vehicle: saline): 107 % of control | T/C (dose: 1.56 mg/kg/injection, schedule: Q01DX009 (ip), vehicle: water): 111 % of control | T/C (dose: 1.56 mg/kg/injection, schedule: Q04DX003 (ip), vehicle: saline): 104 % of control

CCN=C(c1ccc(NC(=O)c2ccc(C(=O)Nc3ccc(C(=NCC)N(CC)CC)cc3)c(Cl)c2)cc1)N(CC)CC
T/C (dose: 0.94 mg/kg/injection, schedule: Q01DX Z (ip), vehicle: carboxymethylcellulose (CMC)): 94 % of control

COc1ccc(NCNc2ccc(OC)cc2)cc1
T/C (dose: 50.0 mg/kg/injection, schedule: Q01DX009 (ip), vehicle: Klucel (hydroxypropylcellulose) (HPC)): 94 % of control | T/C [6]: 98 % of control | T/C [7]: 103 % of control | T/C [8]: 103 % of control

C/C=C(\C)C(=O)Nc1cccc(O)c1
T/C [9]: 90 % of control | T/C [10]: 93 % of control | T/C [11]: 90 % of control

CC1OC(OC2CCC3(C)C(CCC4C3CC(O)C3(C)C(C5=CC(=O)OC5)CCC43O)C2)CC(O)C1OC1CC(O)C(OC2CC(O)C(OC3OC(CO)C(O)C(O)C3O)C(C)O2)C(C)O1 (centres undefined)
T/C (dose: 4.0 mg/kg/injection, schedule: Q01DX015 (sc), vehicle: steriod suspending solution): 96 % of control | T/C (dose: 8.0 mg/kg/injection, schedule: Q01DX015 (sc), vehicle: steriod suspending solution): 104 % of control | T/C (dose: 16.0 mg/kg/injection, schedule: Q01DX015 (sc), vehicle: steriod suspending solution): 102 % of control | T/C (dose: 32.0 mg/kg/injection, schedule: Q01DX015 (sc), vehicle: steriod suspending solution): 98 % of control | T/C [12]: 100 % of control | T/C [13]: 101 % of control | T/C [14]: 100 % of control

Cc1ccc(S(=O)(=O)NCCC(=N)N)cc1
T/C [12]: 93 % of control | T/C [13]: 101 % of control

Nc1ncc(CNc2ccc(C(=O)NC(CC(=O)O)C(=O)O)cc2)c(N)n1 (centres undefined)
T/C (dose: 100.0 mg/kg/injection, schedule: Q01DX001 (ip), vehicle: saline with Tween-80): 93 % of control | T/C (dose: 100.0 mg/kg/injection, schedule: Q01DX009 (ip), vehicle: saline with Tween-80): 106 % of control | T/C [9]: 93 % of control | T/C (dose: 200.0 mg/kg/injection, schedule: Q01DX001 (ip), vehicle: saline with Tween-80): 105 % of control | T/C (dose: 200.0 mg/kg/injection, schedule: Q01DX009 (ip), vehicle: saline with Tween-80): 100 % of control | T/C [10]: 97 % of control | T/C (dose: 400.0 mg/kg/injection, schedule: Q01DX001 (ip), vehicle: saline with Tween-80): 100 % of control | T/C (dose: 400.0 mg/kg/injection, schedule: Q01DX009 (ip), vehicle: saline with Tween-80): 105 % of control | T/C [11]: 98 % of control

CCN(CCNS(C)(=O)=O)c1ccc(N)c(C)c1
T/C (dose: 3.12 mg/kg/injection, schedule: Q01DX009 (ip), vehicle: saline): 101 % of control | T/C (dose: 6.25 mg/kg/injection, schedule: Q01DX009 (ip), vehicle: saline): 91 % of control | T/C (dose: 12.5 mg/kg/injection, schedule: Q01DX009 (ip), vehicle: saline): 99 % of control and 92 % of control

Cc1ccccc1/C(=C/c1ccc([N+](=O)[O-])cc1)C(=O)O
T/C [6]: 95 % of control | T/C [15]: 108 % of control | T/C [16]: 104 % of control

NC(CCC(=O)NC(CSC(c1ccccc1)(c1ccccc1)c1ccc(F)cc1)C(=O)NCC(=O)O)C(=O)O (centres undefined)
T/C (dose: 25.0 mg/kg/injection, schedule: Q01DX009 (ip), vehicle: saline): 124 % of control | T/C (dose: 50.0 mg/kg/injection, schedule: Q01DX009 (ip), vehicle: other): 116 % of control | T/C [17]: 118 % of control | T/C (dose: 200.0 mg/kg/injection, schedule: Q01DX009 (ip), vehicle: saline): 152 % of control

O=C(c1ccccc1)c1nc2ccccc2[nH]1
T/C (dose: 100.0 mg/kg/injection, schedule: Q04DX002 (ip), vehicle: Klucel (hydroxypropylcellulose) (HPC)): 108 % of control | T/C (dose: 200.0 mg/kg/injection, schedule: Q04DX002 (ip), vehicle: Klucel (hydroxypropylcellulose) (HPC)): 101 % of control | T/C (dose: 400.0 mg/kg/injection, schedule: Q04DX002 (ip), vehicle: Klucel (hydroxypropylcellulose) (HPC)): 104 % of control

O=C1C(Cl)=C(Nc2ccc3cn[nH]c3c2)C(=O)c2ccccc21
T/C (dose: 50.0 mg/kg/injection, schedule: Q01DX001 (ip), vehicle: carboxymethylcellulose (CMC)): 102 % of control | T/C [4]: 100 % of control | T/C [5]: 102 % of control

CCOC(=O)C(C)(C)CN(CC(C)(C)C(=O)OCC)c1ccccc1
T/C [9]: 106 % of control | T/C [10]: 106 % of control | T/C [11]: 104 % of control

CCC[As](=O)(O)C(C)C
T/C (dose: 100.0 mg/kg/injection, schedule: Q04DX003 (ip), vehicle: saline): 97 % of control

Cc1nccc2c(C)c3c(cc12)c1ccccc1n3CC1CO1 (centres undefined)
T/C (dose: 4.69 mg/kg/injection, schedule: Q01DX009 (ip), vehicle: saline with Tween-80): 119 % of control | T/C (dose: 9.37 mg/kg/injection, schedule: Q04DX003 (ip), vehicle: saline with Tween-80): 113 % of control | T/C (dose: 18.75 mg/kg/injection, schedule: Q01DX009 (ip), vehicle: saline with Tween-80): 124 % of control | T/C (dose: 18.75 mg/kg/injection, schedule: Q04DX003 (ip), vehicle: saline with Tween-80): 119 % of control | T/C (dose: 37.5 mg/kg/injection, schedule: Q01DX009 (ip), vehicle: saline with Tween-80): 103 % of control | T/C (dose: 37.5 mg/kg/injection, schedule: Q04DX003 (ip), vehicle: saline with Tween-80): 122 % of control | T/C (dose: 75.0 mg/kg/injection, schedule: Q01DX009 (ip), vehicle: saline with Tween-80): 92 % of control | T/C (dose: 150.0 mg/kg/injection, schedule: Q04DX003 (ip), vehicle: saline with Tween-80): 115 % of control

CN(C)C(=O)Sc1c(Cl)cc(S(=O)(=O)F)cc1[N+](=O)[O-]
T/C [7]: 102 % of control | T/C [8]: 101 % of control | T/C (dose: 400.0 mg/kg/injection, schedule: Q04DX003 (ip), vehicle: Klucel (hydroxypropylcellulose) (HPC)): 100 % of control

CC(O)C(C)Cl (centres undefined)
T/C [17]: 100 % of control | T/C (dose: 100.0 mg/kg/injection, schedule: Q01DX009 (ip), vehicle: saline): 103 % of control

COc1cc(N=Nc2ccccc2)ccc1N
T/C [12]: 95 % of control | T/C (dose: 100.0 mg/kg/injection, schedule: Q04DX003 (ip), vehicle: acetone): 100 % of control and 111 % of control | T/C [13]: 112 % of control | T/C (dose: 200.0 mg/kg/injection, schedule: Q04DX003 (ip), vehicle: acetone): 95 % of control | T/C [14]: 96 % of control | T/C (dose: 400.0 mg/kg/injection, schedule: Q04DX003 (ip), vehicle: acetone): 96 % of control and 91 % of control

O=C(NCCCCCCNC(=O)Oc1ccccc1F)Oc1ccccc1F
T/C [6]: 102 % of control | T/C [15]: 97 % of control | T/C [16]: 91 % of control

CCOC(=O)c1cccc(N(CCOS(C)(=O)=O)CCOS(C)(=O)=O)c1
T/C (dose: 16.0 mg/kg/injection, schedule: Q01DX015 (ip), vehicle: saline): 110 % of control | T/C (dose: 32.0 mg/kg/injection, schedule: Q01DX015 (ip), vehicle: saline): 118 % of control | T/C (dose: 64.0 mg/kg/injection, schedule: Q01DX015 (ip), vehicle: saline): 111 % of control

C=CCC(C#N)(CCN(C)C)c1cccc2ccccc12 (centres undefined)
T/C [6]: 99 % of control | T/C [15]: 111 % of control

C/C(=N/NC(=O)c1ccccc1)C(=O)c1ccccc1
T/C [1]: 101 % of control | T/C [2]: 97 % of control | T/C [3]: 98 % of control
